Measurements reported in patent EP0183129A1, “Quinolonecarboxylic acid derivatives” (KYORIN PHARMACEUTICAL CO., LTD., priority 1984, dated 1986).
≈ marks a conversion by molar mass, not a printed value. Counter-ions that a name gives are not always drawn. Like-named read-outs stand apart in the source and are kept apart here.

Assays:
[1] = test system: Yersinia enterocolitica IID 981; experiment: In vitro antibacterial activity, MIC (standard strain); assay type: cell-based; conditions: IID981; Yersinia enterocolitica IID 981; 10^6 cells/ml; standard strain; read-out: MIC
S. pyogenes 3130 = experiment: In vitro antibacterial activity, MIC (clinical isolates); assay type: cell-based; conditions: Streptococcus pyogenes, read-out: MIC
[2] = test system: Proteus vulgaris IFO 3167; experiment: In vitro antibacterial activity, MIC (standard strain); assay type: cell-based; conditions: IFO3167; Proteus vulgaris IFO 3167; 10^6 cells/ml; standard strain; read-out: MIC
[3] = test system: Escherichia coli NIHJ JC-2; experiment: as above; assay type: cell-based; conditions: Escherichia coli, NIHJJC2, Escherichia coli NIHJ JC-2; 10^6 cells/ml; standard strain; read-out: MIC
S. pneumoniae 2054 = experiment: In vitro antibacterial activity, MIC (clinical isolates); assay type: cell-based; conditions: Streptococcus pneumoniae; S. pneumoniae 2054; 10^6 cells/ml; clinical isolate; read-out: MIC
S. agalactiae 4368 = experiment: as above; assay type: cell-based; conditions: Streptococcus agalactiae; S. agalactiae 4368; 10^6 cells/ml; clinical isolate; read-out: MIC
S. agalactiae 4470 = experiment: as above; assay type: cell-based; conditions: Streptococcus agalactiae; S. agalactiae 4470; 10^6 cells/ml; clinical isolate; read-out: MIC
E. coli ATCC 10536 = experiment: In vitro antibacterial activity, MIC (standard strain); assay type: cell-based; conditions: Escherichia coli, ATCC10536; E. coli ATCC 10536; 10^6 cells/ml; standard strain; read-out: MIC
E. coli ML 4707 = experiment: as above; assay type: cell-based; conditions: Escherichia coli, ML4707; E. coli ML 4707; 10^6 cells/ml; standard strain; read-out: MIC
[4] = test system: Clostridium perfringens KYA 13123; experiment: microbe, parasite or virus in culture; assay type: cell-based; conditions: KYA13123
P. aeruginosa IFO 12689 = experiment: In vitro antibacterial activity, MIC (standard strain); assay type: cell-based, Pseudomonas aeruginosa; conditions: Pseudomonas aeruginosa, IFO12689; P. aeruginosa IFO 12689; 10^6 cells/ml; standard strain; read-out: MIC
[5] = test system: Acinetobacter anitratus IID 876; experiment: as above; assay type: cell-based; conditions: Acinetobacter calcoaceticus, IID876, Acinetobacter anitratus IID 876; 10^6 cells/ml; standard strain; read-out: MIC
S. pneumoniae 2950 = experiment: In vitro antibacterial activity, MIC (clinical isolates); assay type: cell-based; conditions: Streptococcus pneumoniae; S. pneumoniae 2950; 10^6 cells/ml; clinical isolate; read-out: MIC
S. pneumoniae 3227 = experiment: as above; assay type: cell-based; conditions: Streptococcus pneumoniae; S. pneumoniae 3227; 10^6 cells/ml; clinical isolate; read-out: MIC
S. agalactiae 4049 = experiment: as above; assay type: cell-based; conditions: Streptococcus agalactiae; S. agalactiae 4049; 10^6 cells/ml; clinical isolate; read-out: MIC
[6] = test system: Staphylococcus aureus 209 P; experiment: In vitro antibacterial activity, MIC (standard strain); assay type: cell-based; conditions: Staphylococcus aureus 209 P; 10^6 cells/ml; standard strain; read-out: MIC
K. pneumoniae 1-220S = experiment: as above; assay type: cell-based; conditions: Klebsiella pneumoniae, 1220S; K. pneumoniae 1-220S; 10^6 cells/ml; standard strain; read-out: MIC
S. pyogenes IID 692 = experiment: as above; assay type: cell-based; conditions: Streptococcus pyogenes, IID692; S. pyogenes IID 692; 10^6 cells/ml; standard strain; read-out: MIC
S. pneumoniae 15 = experiment: In vitro antibacterial activity, MIC (clinical isolates); assay type: cell-based; conditions: Streptococcus pneumoniae; S. pneumoniae 15; 10^6 cells/ml; clinical isolate; read-out: MIC
[7] = test system: Streptococcus pyogenes S-8; experiment: In vitro antibacterial activity, MIC (standard strain); assay type: cell-based; conditions: S8; Streptococcus pyogenes S-8; 10^6 cells/ml; standard strain; read-out: MIC
[8] = test system: Citrobacter freundii IID 976; experiment: as above; assay type: cell-based; conditions: IID976; Citrobacter freundii IID 976; 10^6 cells/ml; standard strain; read-out: MIC
S. faecalis 402 = experiment: In vitro antibacterial activity, MIC (clinical isolates); assay type: cell-based; conditions: Enterococcus faecalis; S. faecalis 402; 10^6 cells/ml; clinical isolate; read-out: MIC
[9] = test system: Serratia marcescens IID 618; experiment: In vitro antibacterial activity, MIC (standard strain); assay type: cell-based; conditions: Serratia marcescens, IID618, Serratia marcescens IID 618; 10^6 cells/ml; standard strain; read-out: MIC
S. agalactiae 4342 = experiment: In vitro antibacterial activity, MIC (clinical isolates); assay type: cell-based; conditions: Streptococcus agalactiae; S. agalactiae 4342; 10^6 cells/ml; clinical isolate; read-out: MIC
S. pyogenes 4340 = experiment: as above; assay type: cell-based; conditions: Streptococcus pyogenes; S. pyogenes 4340; 10^6 cells/ml; clinical isolate; read-out: MIC
S. marcescens GN 7577 = experiment: In vitro antibacterial activity, MIC (standard strain); assay type: cell-based; conditions: Serratia marcescens, GN7577; S. marcescens GN 7577; 10^6 cells/ml; standard strain; read-out: MIC
[10] = test system: Alcaligenes faecalis 0104002; experiment: as above; assay type: cell-based
[11] = test system: Morganella morganii IID 602; experiment: as above; assay type: cell-based; conditions: IID602; Morganella morganii IID 602; 10^6 cells/ml; standard strain; read-out: MIC
P. mirabilis IID 994 = experiment: as above; assay type: cell-based; conditions: Proteus mirabilis, IID994; P. mirabilis IID 994; 10^6 cells/ml; standard strain; read-out: MIC
B. fragilis 0558 = experiment: as above; assay type: cell-based, Bacteroides fragilis; conditions: Bacteroides fragilis, 0558, B. fragilis 0558; 10^6 cells/ml; standard strain; read-out: MIC
S. pyogenes 3102 = experiment: In vitro antibacterial activity, MIC (clinical isolates); assay type: cell-based; conditions: Streptococcus pyogenes; S. pyogenes 3102; 10^6 cells/ml; clinical isolate; read-out: MIC
[12] = Alcaligenes faecalis, 0104002, Alcaligenes faecalis 0104002, 10^6 cells/ml, standard strain, read-out: MIC

Row | SMILES | MIC [1] [µg/mL] | MIC (S. pyogenes 3130) [µg/mL] | MIC [2] [µg/mL] | MIC [3] [µg/mL] | MIC (S. pneumoniae 2054) [µg/mL] | MIC (S. agalactiae 4368) [µg/mL] | MIC (S. agalactiae 4470) [µg/mL] | MIC (E. coli ATCC 10536) [µg/mL] | MIC (E. coli ML 4707) [µg/mL] | MIC [4] [µg/mL] | MIC (P. aeruginosa IFO 12689) [µg/mL] | MIC [5] [µg/mL] | MIC (S. pneumoniae 2950) [µg/mL] | MIC (S. pneumoniae 3227) [µg/mL] | MIC (S. agalactiae 4049) [µg/mL] | MIC [6] [µg/mL] | MIC (K. pneumoniae 1-220S) [µg/mL] | MIC (S. pyogenes IID 692) [µg/mL] | MIC (S. pneumoniae 15) [µg/mL] | MIC [7] [µg/mL] | also measured
1 | CCNCC1CCN(c2cc3c(cc2F)c(=O)c(C(=O)O)cn3C2CC2)C1.Cl (stereo not drawn) [Example 7, 1-Cyclopropyl-7-(3-ethylaminomethyl-1-pyrrolidinyl)-6-fluoro-1,4-dihydro-4-oxo-3-quinolinecarboxylic acid hydrochloride] | 0.39 | 0.2 | 0.05 | 0.05 | 0.39 | 0.39 | 0.39 | 0.05 | 0.05 | 0.2 | 3.13 | 0.78 | 0.39 | 0.39 | 0.78 | 0.1 | 0.2 | 0.39 | 0.39 | 0.39 | MIC [8]: 0.1 µg/mL; MIC (S. faecalis 402): 0.78 µg/mL; MIC [9]: 0.39 µg/mL; MIC (S. agalactiae 4342): 0.39 µg/mL; MIC (S. pyogenes 4340): 0.2 µg/mL; MIC (S. marcescens GN 7577): 6.25 µg/mL; MIC [10, 12]: 1.56 µg/mL; MIC [11]: 0.39 µg/mL; MIC (P. mirabilis IID 994): 0.2 µg/mL; MIC (B. fragilis 0558): 25 µg/mL; MIC (S. pyogenes 3102): 0.2 µg/mL
2 | CNCC1CCN(c2cc3c(cc2F)c(=O)c(C(=O)O)cn3C2CC2)C1 (stereo not drawn) [Example 9, 1-Cyclopropyl-6-fluoro-1,4-dihydro-7-(3-methylaminomethyl-l-pyrrolidinyl)-4-oxo-3-quinolinecarboxylic acid hydrochloride] | 0.39 | 0.1 | 0.1 | 0.05 | 0.78 | 0.2 | 0.39 | 0.1 | 0.1 | 1.56 | 3.13 | 0.78 | 0.78 | 0.39 | 0.78 | 0.2 | 0.39 | 0.2 | 0.39 | 0.2 | MIC [8]: 0.2 µg/mL; MIC (S. faecalis 402): 0.78 µg/mL; MIC [9]: 0.39 µg/mL; MIC (S. agalactiae 4342): 0.39 µg/mL; MIC (S. pyogenes 4340): 0.2 µg/mL; MIC (S. marcescens GN 7577): 6.25 µg/mL; MIC ([10]; Alcaligenes faecalis, 0104002): 1.56 µg/mL; MIC [11]: 0.78 µg/mL; MIC (P. mirabilis IID 994): 0.39 µg/mL; MIC (B. fragilis 0558): 12.5 µg/mL; MIC (S. pyogenes 3102): 0.1 µg/mL
3 | CN(C)CC1CCN(c2c(F)cc3c(=O)c(C(=O)O)cn(C4CC4)c3c2Cl)C1 (stereo not drawn) [Example 20, 8-Chloro-1-cyclopropyl-6-fluoro-1,4-dihydro-7-(3-dimethylaminomethyl-l-pyrrolidinyl)-4-oxo-3-quinolinecarboxylic acid] | 0.1 (≈ 0.245 µM) | 0.05 (≈ 0.123 µM) | 0.05 (≈ 0.123 µM) | 0.025 (≈ 0.0613 µM) | 0.1 (≈ 0.245 µM) | 0.05 (≈ 0.123 µM) | 0.1 (≈ 0.245 µM) | 0.025 (≈ 0.0613 µM) | 0.05 (≈ 0.123 µM) | 0.1 (≈ 0.245 µM) | 3.13 (≈ 7.67 µM) | 0.05 (≈ 0.123 µM) | 0.05 (≈ 0.123 µM) | 0.1 (≈ 0.245 µM) | 0.1 (≈ 0.245 µM) | 0.025 (≈ 0.0613 µM) | 0.1 (≈ 0.245 µM) | 0.1 (≈ 0.245 µM) | 0.05 (≈ 0.123 µM) | 0.05 (≈ 0.123 µM) | MIC [8]: 0.05 µg/mL (≈ 0.123 µM); MIC (S. faecalis 402): 0.1 µg/mL (≈ 0.245 µM); MIC [9]: 0.1 µg/mL (≈ 0.245 µM); MIC (S. agalactiae 4342): 0.1 µg/mL (≈ 0.245 µM); MIC (S. pyogenes 4340): 0.05 µg/mL (≈ 0.123 µM); MIC (S. marcescens GN 7577): 1.56 µg/mL (≈ 3.82 µM); MIC [10, 12]: 0.39 µg/mL (≈ 0.956 µM); MIC [11]: 0.2 µg/mL (≈ 0.49 µM); MIC (P. mirabilis IID 994): 0.05 µg/mL (≈ 0.123 µM); MIC (B. fragilis 0558): ≤ 0.05 µg/mL; MIC (S. pyogenes 3102): 0.05 µg/mL (≈ 0.123 µM)
